A short description of this data set: 6-month stability study of the compositions (impurity concentrations). Type of data set: physicochemical.

A value given as a limit tells only on which side of the number the result lay.

Consider `CCOC(=O)C1=C(COCCN)NC(C)=C(C(=O)OC)C1c1ccccc1Cl` (centres unmarked) [amlodipine besylate], for which the “concentration of the main decomposition product of amlodipine besylate (European Pharmacopeia: Impurity D)” value (any storage condition, 6-month stability testing period, composition containing ramipril and amlodipine) was at most 0.05%. Also, the “stability of amlodipine besylate in the combination dosage form” value (until the end of the six-month stability testing period) is listed as “remains stable”.

The record behind these values is patent publication US20150094345A1, “PHARMACEUTICAL FORMULATION HAVING IMPROVED STABILITY” (priority 2012, published 2015).
